US5716627A, “Skin care compositions containing fatty acid amides, azoles, and retinol or retinyl ester” (Elizabeth Arden Co., Division of Conopco, Inc., priority 1996, dated 1998)

Legend:
[1] = test system: Human keratinocytes; assay: 3H-thymidine incorporation by cultured keratinocytes (keratinocyte proliferation); format: cell-based
Protocol: Human keratinocytes, isolated from neonatal foreskin by trypsin treatment were grown in Dulbecco Modification Eagle (DME) Hams F12 (1:1) medium/10% fetal calf serum in the presence of irradiated 3T3 mouse fibroblasts for establishing dividing keratinocyte colonies. Cells were grown under the above condition until their second passage and kept frozen for future use. […] On day 7, when the cells were 80-90% confluent, they were trypsinized and plated in the serum-free medium for the various experiments.
The incorporation of ^3 H-thymidine by cultured keratinocytes was used as an assay of keratinocyte proliferation. Thymidine is one of four deoxynucleosides which are the monomeric units of DNA, the universal library of genetic information in the animal kingdom. Prior to cell division of a somatic cell such as a keratinocyte, the complete genome of the cell undergoing cell division is replicated. This involves large scale DNA synthesis by the cell and enables both daughter cells to receive identical copies of the genetic material. When ^3 H-thymidine is included in the culture media of keratinocytes which are synthesizing DNA in preparation for cell division then the labelled nucleoside is incorporated into the newly synthesized DNA. The extent of incorporation of ^3 H-thymidine into a population of cells is proportional to the rate of DNA synthesis by this population of cells and therefore an indication of their cellular proliferation.
Keratinocytes (that were cultured as described above) were plated in 24 well plates at a density of 40,000 cells per well in 1 ml media. After incubation for four days or until the cells were 60-70% confluent, the media was changed. Test compounds were added (in triplicate) to the wells 24 hours after the media change, and four hours later 1 μCi ^3 H-Thymidine in 50 μl media was added per well. Cells were incubated for a further 24 hours. Media was removed from the cells, 10% ice cold trichloroacetic acid (TCA) added and plates were incubated on ice for 30 minutes. Cells were washed five times with 5% TCA and allowed to dissolve in 500 μl 0.1M NaOH for at least one hour (usually overnight). The preparations were neutralized with 0.1M HCl; 50 μl of the cell preparation was used to determine total protein content. Disintegrations per minute (DPM) from ^3 H labelling of DNA was determined by liquid scintillation counting of 900 μl of the cell preparation. Thymidine incorporation results were expressed as DPM/μg protein.

[2] = test system: TGase I; assay: Transglutaminase (TGase I) ELISA in cultured keratinocytes, normalized to DNA content (keratinocyte differentiation); format: cell-based, human; details: for Mean TGase/DNA X 10^-4 ± S.D.: n = 3
Protocol: Human keratinocytes, isolated from neonatal foreskin by trypsin treatment were grown in Dulbecco Modification Eagle (DME) Hams F12 (1:1) medium/10% fetal calf serum in the presence of irradiated 3T3 mouse fibroblasts for establishing dividing keratinocyte colonies. Cells were grown under the above condition until their second passage and kept frozen for future use. Frozen second passage keratinocytes were thawed and plated into the above medium and grown for five days before they were switched to a serum-free MCDB 153-based medium keratinocyte growth medium (KGM) from Clonetics Corporation, San Diego, Calif., containing 0.15 mM Ca, or keratinocyte serum-free media (KSFM) from GIBCO containing 0.09 mM Ca). On day 7, when the cells were 80-90% confluent, they were trypsinized and plated in the serum-free medium for the various experiments.
During the process of terminal differentiation in the epidermis, a 15 nm thick layer of protein, known as the cornified envelope (CE) is formed on the inner surface of the cell periphery. The CE is composed of numerous distinct proteins which have been cross-linked together by the formation of N^ε -(γ-glutamyl) lysine isodipeptide bonds catalyzed by the action of at least two different transglutaminases (TGases) expressed in the epidermis. TGase I is expressed in abundance in the differentiated layers of the epidermis, especially the granular layer, but is absent in the undifferentiated basal epidermis. Thus TGase I is a useful marker of epidermal keratinocyte differentiation with high TGase I levels indicating a more differentiated state. An ELISA based TGase I assay, using a TGase I antibody, was used to assess the state of differentiation of the cultured keratinocytes in the examples that follow.
Keratinocytes (cultured as described above) were plated in 96 well plates at a density of 3,000 cells per well in 200 μl media. After incubation for four days the media was changed to media containing test compounds (six replicates per test). The cells were cultured for a further 72 hours after which time the media was aspirated and the plates stored at -70° C. Plates were removed from the freezer, and the cells washed with PBS. 100 μl sterile water was added and the cells were freeze fractured by freezing at -70° C. then thawing. The cells were incubated for one hour at room temperature (R/T) with PBS/3% BSA (wash buffer, bovine serum albumin), then rinsed with a fresh aliquot of wash buffer. Cells were incubated with 50 μl of primary antibodies monoclonal anti-human transglutaminase (IgG) obtained from Amersham (mouse) diluted 1:300 in wash buffer for one hour, 37° C. then rinsed two times with wash buffer. Cells were then incubated with 50 μl of secondary antibody (Feb fragment, peroxidase conjugated anti-mouse IgG obtained from Amersham) diluted 1:200 in wash buffer for one hour at 37° C., then rinsed two times with wash buffer. Cells were incubated with substrate solution (4 mg o-phenylene diamine and 3.3 μl 30% H2 O2 in 10 ml 0.1M citrate buffer pH 5.0) for five minutes, R/T, in darkness (under aluminum foil). The reaction was stopped by the addition of 50 μl 4N H2 SO4. The absorbance of samples was read at 492 nm in the plate reader. Out of the six replicates, four were treated with both antibodies, two were treated only with the secondary antibody (i.e., to determine background binding of enzyme conjugated Ab). TGase levels were determined by subtracting background from the readings from each treatment and determining mean ±s.d. for the replicates exposed to both Ab.
The level of TGase-1 detected after treatment of the cells could be influenced by cell number, i.e., the greater the number of cells the greater the level of TGase-1 detected. The level of TGase-1 was normalized to DNA content of the cells in the same well thus eliminating variation due to differences in cell number. […]

[3] = Examples 1-4, overall conclusion

CC1=C(/C=C/C(C)=C/C=C/C(C)=C/CO)C(C)(C)CCC1 [ROH, retinol]
effect on keratinocyte proliferation (in words) [1, 3]: completely ineffective at increasing keratinocyte proliferation
Thymidine incorporation (% control) ([1]; Table 1A, 2.5 × 10^-7 M, 24 hours, 0.25 µM): 106%
mean Thymidine incorp./μg protein ± s.d ([1]; Table 1A, 2.5 × 10^-7 M, 24 hours, n = 3): 2218 ± 73 DPM/μg protein
Thymidine incorporation (% control) ([1]; Table 1A, 2.5 × 10^-8 M, 24 hours, 0.025 µM): 97%
mean Thymidine incorp./μg protein ± s.d ([1]; Table 1A, 2.5 × 10^-8 M, 24 hours, n = 3): 2034 ± 46 DPM/μg protein
Thymidine incorporation (% control) ([1]; Table 1A, 2.5 × 10^-9 M, 24 hours, 0.0025 µM): 94%
mean Thymidine incorp./μg protein ± s.d ([1]; Table 1A, 2.5 × 10^-9 M, 24 hours, n = 3): 1977 ± 19 DPM/μg protein
Thymidine incorporation (% control) ([1]; Table 2A, 2.5 × 10^-9 M RA or ROH, with 10^-8 M LADEA and/or 10^-9 M Bifonazole where named, 24 hours): 111%
mean Thymidine incorp. μg protein ± s.d ([1]; Table 2A, 2.5 × 10^-9 M RA or ROH, with 10^-8 M LADEA and/or 10^-9 M Bifonazole where named, 24 hours, n = 3): 4856 ± 217 DPM/μg protein
Thymidine incorporation (% control) ([1]; Table 3A, 2.5 × 10^8 M [sic] ROH, with 10^8 M LADEA and/or 10^9 M Climbazole where named, 1440 min): 102%
mean Thymidine incorp/μg protein ± s.d ([1]; Table 3A, 2.5 × 10^8 M [sic] ROH, with 10^8 M LADEA and/or 10^9 M Climbazole where named, n = 3): 3788 ± 57 DPM/μg protein
Thymidine incorporation (% control) ([1]; Table 4, 2.5 × 10^9 M [sic] RA or ROH, with 10^8 M LAMEA and/or 10^8 M Clotrimazole where named, 24 hours): 113%
mean Thymidine incorp/μg protein ± s.d, normalized to control ([1]; Table 4, 2.5 × 10^9 M [sic] RA or ROH, with 10^8 M LAMEA and/or 10^8 M Clotrimazole where named, 24 hours, n = 3): 1.13 ± 0.09
effect on transglutaminase level / keratinocyte differentiation (in words) ([2]; Example 1, 2.5×10^-7 M, 2.5×10^-8 M and 2.5×10^-9 M): dose dependent
effect on keratinocyte TG1 level / differentiation (in words) ([2]; Example 2, 2.5×10^-8 M RA or retinol, 10^-8 M LAMEA, 10^-8 M bifonazole, 72 hour): Neither 2.5×10^-8 M retinol nor 10^-8 M LAMEA+10^-8 M bifonazole had an inhibitory effect on the keratinocyte TG1 level
effect on keratinocyte TG1 level / differentiation (in words) ([2]; Example 3, 2.5×10^-7 M RA, 2.5×10^-9 M retinol with 10^-8 M LADEA and/or climbazole, 72 hour): no inhibitory effect on the keratinocyte TG1 level
effect on keratinocyte differentiation (in words) [2, 3]: significantly less effective than retinoic acid at inhibiting keratinocyte differentiation
TGase/DNA (% Control) ([2]; Table 1B, 2.5 × 10^-7 M, 72 hours, 0.25 µM): 47%
Mean TGase/DNA X 10^-4 ± S.D. ([2]; Table 1B, 2.5 × 10^-7 M, 72 hours): 1.14 ± 0.22 X 10^-4
TGase/DNA (% Control) ([2]; Table 1B, 2.5 × 10^-8 M, 72 hours, 0.025 µM): 77%
Mean TGase/DNA X 10^-4 ± S.D. ([2]; Table 1B, 2.5 × 10^-8 M, 72 hours): 1.89 ± 0.30 X 10^-4
TGase/DNA (% Control) ([2]; Table 1B, 2.5 × 10^-9 M, 72 hours, 0.0025 µM): > 100%
Mean TGase/DNA X 10^-4 ± S.D. ([2]; Table 1B, 2.5 × 10^-9 M, 72 hours): 2.70 ± 0.59 X 10^-4
TGase/DNA (% Control) ([2]; Table 2B and Example 2B text, 2.5×10^-8 M RA or retinol, 10^-8 M LAMEA, 10^-8 M bifonazole where named, 72 hour): 84%
mean TGase/DNA × 10^-4 ± s.d ([2]; Table 2B, 2.5 × 10^8 M [sic] RA or ROH, 10^8 M LA-MEA, 10^8 M Bifonazole where named, 72 hour, n = 6): 0.111 ± 0.023 × 10^-4
TGase/DNA (% Control) ([2]; Table 3B and Example 3B, 2.5×10^-9 M RA or ROH, with 10^-8 M LADEA and/or 10^-8 M climbazole where named, 72 hour): 129%
mean TGase/DNA × 10^4 ± s.d ([2]; Table 3B, 2.5 × 10^9 M [sic] RA or ROH, with 10^8 M LA-DEA and/or 10^8 M Climbazole where named, 72 hour, n = 6): 1.96 ± 0.33 × 10^4
